Article PMC2442655, “Structure-Activity Relationship and Substrate-Dependent Phenomena in Effects of Ginsenosides on Activities of Drug-Metabolizing P450 Enzymes” (PLoS ONE, 2008)
Read-outs that look alike come from different tables or passages of the source.

How the values were obtained:
CYP3A4 [1] = target: T1, CYP3A4 (Homo sapiens, UniProt P08684); assay: Vivid CYP3A4 red fluorescent assay; details: for Effect on CYP3A4 catalytic activity, Vivid red assay: red substrate
Protocol: (§1) The inhibition of the catalytic activities of cDNA-expressed human P450 enzymes by ginsenosides was determined using Vivid® P450 screening kits (CYP1A2 blue, CYP2C9 red, CYP2C19 blue, CYP2D6 blue, CYP3A4 green and red) according to the manufacturer's instructions (Invitrogen Corporation; Carlsbad, CA, USA).
(§2) In brief, the assays were carried out in Costar® black-wall 96-well plates with ultra thin clear bottoms (Corning Inc, Corning, NY, USA) in a kinetic assay mode. Stock solutions (10 mM) of ginsenosides in methanol were prepared and diluted to various concentrations (2.5× 100, 50, 10, 5, 1 µM). For each well, 40 µL of solution of test compounds or vehicle was incubated with 50 µL pre-mixture (mixture of BACULOSOMES® reagent, regeneration system and reaction buffer) at 37°C for 20 min. The reaction was initiated by adding 10 µL of a mixture of substrate and NADP^+ per well with a respective concentration of Vivid® substrate (Table 1). The plate was read immediately for fluorescence changes every 0.5 min at 37°C for 30 min using a FlexStation II384 fluorometric plate reader (Molecular Devices, Sunnyvale, CA, USA) with respective excitation and emission wavelengths for each P450 enzyme (Table 1). The final methanol volume in the reaction was less than or equal to 1%.

CYP2D6 = CYP2D6 (Homo sapiens, UniProt P10635); assay: Vivid CYP2D6 blue fluorescent assay; details: for inhibition at 30 min, 50 µM: human
Chain of CYP2D6 (P10635 whole entry): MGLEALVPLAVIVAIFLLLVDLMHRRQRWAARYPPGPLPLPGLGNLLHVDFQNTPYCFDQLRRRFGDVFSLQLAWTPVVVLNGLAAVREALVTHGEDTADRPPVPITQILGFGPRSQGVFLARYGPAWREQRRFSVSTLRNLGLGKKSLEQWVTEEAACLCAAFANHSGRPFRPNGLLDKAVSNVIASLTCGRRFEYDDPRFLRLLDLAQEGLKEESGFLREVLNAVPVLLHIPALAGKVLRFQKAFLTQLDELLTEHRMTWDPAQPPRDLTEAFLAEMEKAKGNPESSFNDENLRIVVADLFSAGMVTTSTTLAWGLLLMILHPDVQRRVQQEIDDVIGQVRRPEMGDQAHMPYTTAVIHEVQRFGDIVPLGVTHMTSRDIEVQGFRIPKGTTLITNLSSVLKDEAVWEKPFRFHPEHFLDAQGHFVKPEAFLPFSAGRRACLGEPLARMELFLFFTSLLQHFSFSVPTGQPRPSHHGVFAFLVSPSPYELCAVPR
Protocol: as §1, §2

CYP3A4 [2] = target: T1, CYP3A4; assay: Nifedipine oxidation in human liver microsomes; details: for Effect on NF metabolism: 1-50 µM; for Effect on NF in vitro metabolism: low concentrations (1∼10 µM)
Protocol: (§3) The effects of the ginsenosides and sapogenins on the in vitro metabolism of CBZ were evaluated using HLM. […] Vehicle control samples were treated with methanol at a final concentration of 0.5% instead of test compounds. The reaction was initiated by adding 60 µL pre-warmed NADPH-regenerating system (50 µL BD solution A and 10 µL BD solution B). After incubation at 37°C for 30 min, the reaction system was quenched by adding 0.4 ml ice-cold acetonitrile, which was mixed well and centrifuged at 4°C (10,000 g, 10 min). The supernatant (0.4 ml) was collected, mixed with 0.8 ml acetonitrile and then centrifuged at 4°C (10,000 g, 10 min). The supernatant (30 µL) was diluted with 970 µL ddH2O and 50 µL of the mixture was injected onto the high performance liquid chromatography/tandem mass spectrometry (HPLC-MS-MS) system for analysis. […] Microsomal studies using NF as the substrate were conducted as described above for CBZ with several modifications. The NF concentration was 1 µM. The supernatant (0.4 ml) of the reaction system after quenching and centrifugation was also combined with 0.8 ml acetonitrile and centrifuged, and 10 µL of the resultant supernatant was directly injected onto the HPLC-MS-MS system for analysis.
(§4) The HPLC was performed using an Agilent 1200 system (Palo Alto, CA, USA) equipped with a binary pump and an auto-sampler. […] The elution lasted for 8 min.
(§5) The MS analysis was performed on a 4000Q Trap™ triple quadrupole mass spectrometer (Applied Biosystems/MDS Sciex Instruments, Concord, Ontario, Canada) equipped with a Turbo V ion source (TurboIonSpray™ probe was used), a Dell™ computer, and Analyst™ software. Electrospray ionization in the positive mode was employed to analyze CBZ-E and ONF, respectively. The compound parameters for CBZ-E and ONF were: declustering potential, 65 and 95 units, and collision energy, 39 and 40 units, respectively. The ion source parameters were as follows: curtain gas, 15 units; collision gas, medium; ion spray voltage, 4000 and 5000 V, respectively; temperature, 650 and 350°C, respectively; ion source gas 1, 60.0 and 65.0 units, respectively; ion source gas 2, 45.0 units.

CYP3A4 [3] = target: T1, CYP3A4; assay: Vivid CYP3A4 green fluorescent assay
Protocol: as §1, §2

CYP3A4 [4] = target: T1, CYP3A4; assay: Carbamazepine 10,11-epoxidation in human liver microsomes; details: for Effect on in vitro CBZ metabolism: 1-50 µM
Protocol: as §3, §4, §5

CYP2C19 = CYP2C19 (Homo sapiens, UniProt P33261); assay: Vivid CYP2C19 blue fluorescent assay
Chain of CYP2C19 (P33261 whole entry): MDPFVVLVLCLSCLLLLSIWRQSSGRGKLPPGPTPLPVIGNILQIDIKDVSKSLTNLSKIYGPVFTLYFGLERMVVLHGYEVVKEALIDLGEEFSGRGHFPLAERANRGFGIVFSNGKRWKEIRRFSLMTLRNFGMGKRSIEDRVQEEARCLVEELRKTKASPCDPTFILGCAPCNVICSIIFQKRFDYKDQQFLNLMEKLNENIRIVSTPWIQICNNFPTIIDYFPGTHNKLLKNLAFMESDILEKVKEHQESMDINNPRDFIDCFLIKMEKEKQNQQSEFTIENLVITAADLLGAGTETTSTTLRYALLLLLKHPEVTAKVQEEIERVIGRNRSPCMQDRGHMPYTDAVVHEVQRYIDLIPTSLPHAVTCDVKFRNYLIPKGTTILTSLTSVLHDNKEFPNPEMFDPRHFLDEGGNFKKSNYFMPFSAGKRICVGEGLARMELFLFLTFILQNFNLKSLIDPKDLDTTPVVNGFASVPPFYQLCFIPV
Protocol: as §1, §2

CYP2C9 = target: T2, CYP2C9 (Homo sapiens, UniProt P11712); assay: Vivid CYP2C9 red fluorescent assay; format: in vitro ADME
T2 construct: purchased Invitrogen Corporation
T2 sequence (P11712 whole entry): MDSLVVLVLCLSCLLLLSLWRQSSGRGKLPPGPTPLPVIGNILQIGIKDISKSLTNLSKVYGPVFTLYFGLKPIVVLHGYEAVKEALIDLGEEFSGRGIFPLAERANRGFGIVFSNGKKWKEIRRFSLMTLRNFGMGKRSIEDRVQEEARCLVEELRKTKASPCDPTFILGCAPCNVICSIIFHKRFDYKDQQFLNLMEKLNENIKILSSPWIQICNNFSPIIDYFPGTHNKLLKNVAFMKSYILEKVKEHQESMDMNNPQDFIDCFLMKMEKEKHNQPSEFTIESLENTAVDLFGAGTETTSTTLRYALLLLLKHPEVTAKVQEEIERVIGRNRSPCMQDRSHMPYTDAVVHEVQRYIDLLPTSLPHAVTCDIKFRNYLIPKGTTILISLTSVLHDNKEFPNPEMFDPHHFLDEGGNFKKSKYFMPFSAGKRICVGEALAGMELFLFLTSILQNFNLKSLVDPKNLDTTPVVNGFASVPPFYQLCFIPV
Protocol: In brief, the assays were carried out in Costar® black-wall 96-well plates with ultra thin clear bottoms (Corning Inc, Corning, NY, USA) in a kinetic assay mode. […] For each well, 40 µL of solution of test compounds or vehicle was incubated with 50 µL pre-mixture (mixture of BACULOSOMES® reagent, regeneration system and reaction buffer) at 37°C for 20 min. […] The final methanol volume in the reaction was less than or equal to 1%.

CYP1A2 = target: T3, CYP1A2 (Homo sapiens, UniProt P05177); assay: Vivid CYP1A2 blue fluorescent assay; details: for IC50: IC50 CYP1A2 blue, cDNA-expressed enzyme, Vivid blue substrate 3 µM; for inhibition at 30 min, 50 µM: human
T3 sequence (P05177 1-516): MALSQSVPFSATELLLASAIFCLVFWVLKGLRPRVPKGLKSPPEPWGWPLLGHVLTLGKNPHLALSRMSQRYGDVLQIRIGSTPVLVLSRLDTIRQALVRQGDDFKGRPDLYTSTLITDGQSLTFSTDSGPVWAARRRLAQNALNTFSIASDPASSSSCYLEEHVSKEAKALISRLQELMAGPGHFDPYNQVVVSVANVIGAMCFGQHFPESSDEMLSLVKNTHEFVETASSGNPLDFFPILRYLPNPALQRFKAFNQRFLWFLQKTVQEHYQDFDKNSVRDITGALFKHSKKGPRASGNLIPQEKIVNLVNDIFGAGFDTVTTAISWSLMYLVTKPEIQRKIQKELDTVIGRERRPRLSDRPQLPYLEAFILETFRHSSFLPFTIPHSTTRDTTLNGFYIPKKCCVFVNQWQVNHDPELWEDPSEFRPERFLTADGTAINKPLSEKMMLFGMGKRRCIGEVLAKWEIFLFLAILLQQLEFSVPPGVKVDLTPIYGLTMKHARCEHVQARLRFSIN
Protocol: as §1, §2

CYP3A4 [5] = system: CYP3A4; set-up: method as in PMID 15133536; details: read-out: IC50 CYP3A4-mediated testosterone 6β-hydroxylation; cited from earlier work
[6] = recombinant (cDNA-expressed) CYP2D6 BACULOSOMES, probe Vivid blue substrate 10 µM
[7] = cDNA-expressed enzyme, Vivid red substrate 2 µM, maximum concentration 50 µM, read-out: IC50 CYP2C9 red
[8] = recombinant (cDNA-expressed) CYP1A2 BACULOSOMES, probe Vivid blue substrate 3 µM

T1 sequence (P08684 whole entry): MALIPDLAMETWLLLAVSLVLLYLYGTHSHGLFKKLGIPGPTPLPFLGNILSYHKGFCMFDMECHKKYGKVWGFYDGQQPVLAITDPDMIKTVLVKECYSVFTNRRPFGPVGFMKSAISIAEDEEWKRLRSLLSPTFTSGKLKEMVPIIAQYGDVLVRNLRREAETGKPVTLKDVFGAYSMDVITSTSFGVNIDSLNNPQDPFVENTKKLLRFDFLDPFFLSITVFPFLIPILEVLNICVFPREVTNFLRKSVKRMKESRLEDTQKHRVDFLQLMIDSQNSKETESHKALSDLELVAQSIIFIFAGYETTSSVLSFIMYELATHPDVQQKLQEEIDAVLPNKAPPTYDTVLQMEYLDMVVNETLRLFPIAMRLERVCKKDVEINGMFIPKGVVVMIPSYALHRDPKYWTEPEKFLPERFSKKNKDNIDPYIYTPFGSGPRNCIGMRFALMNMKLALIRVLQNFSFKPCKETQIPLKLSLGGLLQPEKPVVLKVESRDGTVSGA

| Compound | Effect on CYP3A4 catalytic activity, Vivid red assay (CYP3A4 [1]) | IC50 (CYP2D6) [µM] | inhibition at 30 min, 50 µM (CYP2D6; [6]) [%] | Effect on NF metabolism (CYP3A4 [2]) | IC50 (CYP3A4 [3]) [µM] | Effect on in vitro CBZ metabolism (CYP3A4 [4]) | IC50 (CYP2C19) [µM] | IC50 (CYP2C9; [7]) [µM] | IC50 (CYP1A2) [µM] | inhibition at 30 min, 50 µM (CYP1A2; [8]) [%] | IC50 (CYP3A4 [1]) [µM] | Effect on NF in vitro metabolism (CYP3A4 [2]) | further results |
| --- | --- | --- | --- | --- | --- | --- | --- | --- | --- | --- | --- | --- | --- |
| CC(C)(O)CCC[C@@](C)(O)[C@H]1CC[C@]2(C)[C@@H]1[C@H](O)C[C@@H]1[C@@]3(C)CC[C@H](O)C(C)(C)[C@@H]3CC[C@]12C [20(R)-25-OH-PPD, 20(R)-dammarane-3β, 12β, 20, 25-tetrol] | activated the catalytic activity of CYP3A4 | > 50 | 31.8 | negligible | 25.6 | substantially activated | 69.1 | 7.6 | > 100 | 22.8 | – | – | Activation of CYP3A4, Vivid red assay (fold) (CYP3A4 [1]; 10 µM): about two-fold |
| COC(C)(C)CCC[C@](C)(O)[C@H]1CC[C@]2(C)[C@@H]1[C@H](O)C[C@@H]1[C@@]3(C)CC[C@H](O)C(C)(C)[C@@H]3CC[C@]12C [25-OCH3-PPD, 20(S)-25-methoxyl-dammarane-3β, 12β, 20-triol] | – | > 50 | 12.6 | negligible | 17.7 | substantially activated | 26.5 | 7.5 | > 100 | 4.8 | > 100 | – | Activation of CYP3A4, Vivid red assay (CYP3A4 [1]; 10 µM): about 20%; Effect on CYP3A4, Vivid red assay (CYP3A4 [1]; high concentrations): weakly inhibited; inhibition at 30 min, 50 µM (CYP3A4 [1]; human, recombinant (cDNA-expressed) CYP3A4 BACULOSOMES, probe Vivid red substrate 3 µM): 25.4% |
| CC(C)=CCC[C@](C)(O)[C@H]1CC[C@]2(C)[C@@H]1[C@H](O)C[C@@H]1[C@@]3(C)CC[C@H](O)C(C)(C)[C@@H]3CC[C@]12C [PPD, protopanaxadiol] | inhibited CYP3A4 in a dose-dependent manner | > 50 | 25.9 | – | 9.3 | substantially activated | 52.6 | 8 | 86.6 | – | 43.1 | weak activation effect | Activation of CBZ metabolism (fold) (CYP3A4 [4]; 10 µM): about five-fold |
| CC(C)=CCC[C@](C)(O[C@@H]1O[C@H](CO)[C@@H](O)[C@H](O)[C@H]1O)[C@H]1CC[C@]2(C)[C@@H]1[C@H](O)C[C@@H]1[C@@]3(C)CC[C@H](O[C@@H]4O[C@H](CO)[C@@H](O)[C@H](O)[C@H]4O[C@@H]4O[C@H](CO)[C@@H](O)[C@H](O)[C@H]4O)C(C)(C)[C@@H]3CC[C@]12C [Rd] | – | > 50 | 18.1 | – | > 100 | – | > 100 | > 50 | > 100 | 38.3 | 72.7 | – | inhibition at 30 min, 50 µM (CYP3A4 [3]; human, recombinant (cDNA-expressed) CYP3A4 BACULOSOMES, probe Vivid green substrate 2 µM): 12.6%; inhibition at 30 min, 50 µM (CYP2C19; human, recombinant (cDNA-expressed) CYP2C19 BACULOSOMES, probe Vivid blue substrate 10 µM): 27.7%; inhibition at 30 min, 50 µM (CYP2C9; human, recombinant (cDNA-expressed) CYP2C9 BACULOSOMES, probe Vivid red substrate 2 µM): 34.8%; IC50 (CYP3A4 [5]): 62 µM |
| CC(C)=CCC[C@](C)(O)[C@H]1CC[C@]2(C)[C@@H]1[C@H](O)C[C@@H]1[C@@]3(C)CC[C@H](O[C@@H]4O[C@H](CO)[C@@H](O)[C@H](O)[C@H]4O)C(C)(C)[C@@H]3CC[C@]12C [Rh2] | inhibited CYP3A4 in a dose-dependent manner | > 50 | – | – | 47 | did not significantly alter | 49.9 | – | > 100 | – | 9.8 | weak activation effect | inhibition at 30 min, 50 µM (CYP2D6): 20.3%; Effect on CYP3A4-catalyzed NF oxidation (CYP3A4 [2]; high concentration (50 µM)): weakly inhibited; IC50 (CYP2C9): 30.9 µM; inhibition at 30 min, 50 µM (CYP1A2): 39.4% |
| O=c1cc(-c2ccccc2)oc2c1ccc1ccccc12 [α-naphthoflavone, reference compound] | – | – | – | – | – | – | – | – | – | – | – | – | Effect on in vitro NF metabolism (CYP3A4 [2]; 10 µM): did not significantly alter; Increase of CBZ metabolism vs vehicle control (CYP3A4 [4]; 10 µM): 772% |
